In US9492508B2, “Parathyroid hormone analogs and uses thereof” (The General Hospital Corporation, priority 2010, dated 2016):
“Also recorded” adds a separate entry of the source. Ends that are not written are not given here.

Assays:
human PTHR1 (R0) = target: T1, human PTHR1 (R0) (Homo sapiens, UniProt Q03431); assay: Competition binding, R0 conformation of human PTHR1 (COS-7 membranes, 125I-PTH(1-34) tracer, GTPγS); conditions: for R0 binding at human PTH receptor as compared to PTH(1-34): FIG. 5A
T1 construct: expressed in transfected cells; host or cells: COS-7 cells (membranes)
T1 sequence (Q03431 27-593): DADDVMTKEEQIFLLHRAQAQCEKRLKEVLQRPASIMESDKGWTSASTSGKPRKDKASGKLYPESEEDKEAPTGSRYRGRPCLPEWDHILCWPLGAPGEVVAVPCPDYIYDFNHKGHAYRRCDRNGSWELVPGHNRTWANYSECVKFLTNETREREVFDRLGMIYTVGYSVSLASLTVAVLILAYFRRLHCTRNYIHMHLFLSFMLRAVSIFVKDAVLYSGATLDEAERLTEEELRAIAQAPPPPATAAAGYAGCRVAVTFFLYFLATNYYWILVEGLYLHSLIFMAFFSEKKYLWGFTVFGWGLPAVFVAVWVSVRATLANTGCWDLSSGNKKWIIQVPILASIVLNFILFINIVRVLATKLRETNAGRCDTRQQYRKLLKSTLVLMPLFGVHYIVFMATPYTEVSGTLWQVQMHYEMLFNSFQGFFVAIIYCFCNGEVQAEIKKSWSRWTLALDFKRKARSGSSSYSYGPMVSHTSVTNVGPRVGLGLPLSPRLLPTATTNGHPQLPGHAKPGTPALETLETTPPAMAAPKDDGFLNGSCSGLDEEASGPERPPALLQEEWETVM
Experimental: (§1) Briefly, the R^0 form of the receptor can be favored by addition of the non-hydrolyzable nucleotide analog GTPγS. The RG form can be favored, for example, by co-transfection of cells with a negative dominant Gαs subunit. […] Data are means of four experiments, each performed in duplicate. Curves were fit to the data using Graph-Pad Prism 4.0.
(§2) Here, competition binding assays for the R^0 and RG PTHR1 conformation were performed in membranes prepared from transfected COS-7 cells, as described by Dean et al., Mol Endocrinol 22:156-66, 2008. Data are means of three experiments, each performed in duplicate. Curves were fit to the data using Graph-Pad Prism 4.0.

human PTHR1 (RG) = target: T2, human PTHR1 (RG) (Homo sapiens, UniProt Q03431); assay: Competition binding, RG conformation of human PTHR1 (COS-7 membranes); conditions: mean of 3 experiments, read-out: Binding human PTHR1 IC50 (Log M) RG (converted)
T2 construct: expressed in transfected cells; host or cells: COS-7 cells (membranes)
T2 sequence (Q03431 27-593): T1 sequence (Q03431 27-593)
Experimental: as §1, §2

rat PTHR1 (RG) = target: T3, rat PTHR1 (RG) (Rattus norvegicus, UniProt P25961); assay: Competition binding, RG conformation of rat PTHR1
T3 construct: expressed in transfected cells
T3 sequence (P25961 27-591): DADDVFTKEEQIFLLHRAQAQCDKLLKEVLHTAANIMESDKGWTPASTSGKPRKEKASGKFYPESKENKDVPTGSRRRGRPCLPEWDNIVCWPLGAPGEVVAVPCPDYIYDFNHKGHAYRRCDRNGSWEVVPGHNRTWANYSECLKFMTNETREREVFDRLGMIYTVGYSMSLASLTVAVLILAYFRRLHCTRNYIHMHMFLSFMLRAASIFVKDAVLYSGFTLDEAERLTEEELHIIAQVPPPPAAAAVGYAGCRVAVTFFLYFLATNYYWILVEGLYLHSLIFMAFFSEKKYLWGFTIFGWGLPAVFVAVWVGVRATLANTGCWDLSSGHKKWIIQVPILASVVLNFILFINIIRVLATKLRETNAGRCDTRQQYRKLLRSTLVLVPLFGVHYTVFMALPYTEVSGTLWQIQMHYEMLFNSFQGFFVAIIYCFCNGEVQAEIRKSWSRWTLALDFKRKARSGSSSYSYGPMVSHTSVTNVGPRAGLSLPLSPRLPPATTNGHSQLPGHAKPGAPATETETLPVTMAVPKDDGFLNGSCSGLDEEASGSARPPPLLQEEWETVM
Source text: as §1

[1] = Stability in phosphate-citrate buffers and 10 mM acetic acid, reverse-phase HPLC; format: physicochemical; conditions: 4 weeks
Experimental: The amount of intact SP-PTH-AAK (SEQ ID NO:4) peptide remaining in the sample, as compared to the starting sample, was measured by rPHPLC.
Stability testing of SP-PTH-AAK (SEQ ID NO:4) was also performed. SP-PTH-AAK (SEQ ID NO:4) was stored at different peptide concentrations in 50 mM phosphate-citrate (PC) buffer (pH 4.0, 4.5, and 5.5) and 10 mM acetic acid at 5, 25, and 40° C. for 4 weeks.

[2] = rat, in vivo, iv, 24.3 nmol/kg
in vivo = conditions: rat, iv, 24.3 nmol/kg
[3] = Repetitive daily dosing in TPTX rats (10 days); format: in vivo, rat
Experimental: FIGS. 20A-20D are graphs showing effects of once-daily SP-PTH on serum and urine Ca in TPTX rats. TPTX and sham-control rats were treated once daily, for 10 days, via sc. injection with either vehicle (Sham and TPTX) or SP-PTH (SEQ ID NO:11) (1, 2. 4, or 8 nmol/kg), or with 1,25(OH)2D (0.075 or 0.2 μg/kg. orn). After the last injection on day 10, the rats were placed in metabolic cages, and jugular vein blood was obtained at 8 (FIG. 20A) and 24 hrs (FIG. 20B); urine was collected for the intervals 0-8 (FIG. 20C) and 8-24 hrs (FIG. 20D); means±s.e.m: n=5; ′˜, P vs vehicle <005.
In therapeutic use in humans, one would administer doses sufficient to only normalize blood Ca. A key experiment is to determine if it is indeed feasible to normalize sCa following a repetitive dosing regimen. We thus performed the experiment of FIGS. 20A-2D, in which TPTX rats were treated daily for 10 days with SP-PTH at doses of 1, 2, 4 and 8 nmol/kg (s.c). For comparison, 1,25(OH)2-vitamin-D (calcitriol) at doses of 0.075 and 0.2 mcg/kg (oral) were used for the same time periods.

[4] = 4 nmol/kg s.c. once daily 10 days

R0 binding at human PTH receptor as compared to PTH(1-34) (human PTHR1 (R0)) | IC50 (human PTHR1 (RG)) [nM] | IC50 (rat PTHR1 (RG); RG conformation, read-out: Binding rat PTHR1 IC50 nM RG (converted)) [nM] | stability, intact peptide by reverse-phase HPLC at 25° C. ([1]; 50 mM PC buffer pH 4.0, 4.5, 5.5 and 10 mM acetic acid, 25° C.) | AUCinf [2] [pmol·min/mL] | MRT (in vivo; Crl:CD(SD)) [min] | Vd (in vivo; Crl:CD(SD)) [L/kg] | clearance (in vivo; Crl:CD(SD)) [mL/min/kg] | half-life (in vivo; Crl:CD(SD)) [min] | AUC(0-t) (in vivo) [µM·h] | IC50 (human PTHR1 (R0); R0 conformation, mean of 3 experiments, read-out: Binding human PTHR1 IC50 (Log M) R0 (converted)) [nM] | Substance | binding to RG form of rat PTHR1, comparison in words (rat PTHR1 (RG); FIG. 1B) | stability at 40° C., HPLC finding ([1]; 40° C.) | sCa at 8 hours after the last injection [3, 4] | sCa at 24 hours after the last injection [3, 4] | urine calcium excretion ([3]; SP-PTH 4 nmol/kg s.c. once daily 10 days)
enhanced R^0 binding | 0.224 | 0.1 | near full stability | 1131 | 5.83 | 0.126 | 21.6 | 7.27 | 0.0187 | – | AVAEIQLMHQRAKWIQDARRRAFLHKLIAEIHTAEI-OH [SP-PTH-AAK, [Ala^1,3,12,18,22,Gln^10,Arg^11,Trp^14,Lys^26]PTH(1-14)/PTHrP(15-36)] | strongest binding; also recorded: increased | a degraded product, likely a methionine-oxide derivative, was detected | – | – | –
enhanced R^0 binding | – | – | – | – | – | – | – | – | – | 1.38 | AVAEIQLMHQRAKWIQDLRRRFFLHHLIAEIHTAEI-OH [SP-PTH, [Ala^1,3,12,Gln^10,Arg^11,Trp^14]PTH(1-14)/PTHrP(15-36)] | – | – | avoided hypercalcemia | maintained near-normal sCa | low at all time points
